Measurements taken from patent US7083941B2, “Compositions and methods for gender sorting” (priority 2001, dated 2006).

Each compound was assayed against T1, human estrogen receptor (Homo sapiens, UniProt P03372, G400V). Settings: not given.
T1 sequence (P03372 1-595 G400V): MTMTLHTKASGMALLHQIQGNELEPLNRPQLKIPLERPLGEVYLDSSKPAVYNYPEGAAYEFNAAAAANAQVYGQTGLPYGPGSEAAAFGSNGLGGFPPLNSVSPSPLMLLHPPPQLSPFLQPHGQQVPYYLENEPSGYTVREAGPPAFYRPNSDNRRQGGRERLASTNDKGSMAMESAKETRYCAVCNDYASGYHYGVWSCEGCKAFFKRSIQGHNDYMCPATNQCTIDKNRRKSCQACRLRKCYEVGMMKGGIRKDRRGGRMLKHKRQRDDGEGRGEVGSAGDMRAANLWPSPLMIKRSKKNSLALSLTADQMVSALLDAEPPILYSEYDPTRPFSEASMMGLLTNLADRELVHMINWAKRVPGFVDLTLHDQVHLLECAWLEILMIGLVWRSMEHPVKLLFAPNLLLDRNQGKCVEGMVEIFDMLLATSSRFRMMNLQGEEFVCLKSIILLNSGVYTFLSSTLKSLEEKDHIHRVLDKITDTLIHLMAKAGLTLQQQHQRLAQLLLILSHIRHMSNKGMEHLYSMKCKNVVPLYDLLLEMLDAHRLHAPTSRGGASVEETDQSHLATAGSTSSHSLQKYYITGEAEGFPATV

| Compound | Percent Cross Reactivity [%] |
| --- | --- |
| 4-Hydroxytamoxifen | <0.25 |

Same assay, conditions: cross-activity determined at concentration of 50% maximum potency; 17-β Estradiol = 100

| Compound | Percent Cross Reactivity [%] |
| --- | --- |
| COc1cc2c(cc1O)CC[C@@H]1[C@@H]2CC[C@]2(C)C(=O)CC[C@@H]12 [2-Methoxyestrone] | <0.25 |
| C[C@]12CC[C@@H]3c4ccc(O)cc4CC[C@H]3[C@@H]1C[C@@H](O)C2=O [16-Hydroxyestrone] | 4.0 |
| C[C@]12CCC(=O)C=C1CC[C@@H]1[C@@H]2CC[C@]2(C)C(=O)CC[C@@H]12 [Androstenedione] | <0.05 |
| C[C@]12C[C@H](O)[C@H]3[C@@H](CCC4=CC(=O)CC[C@@]43C)[C@@H]1CC[C@@H]2C(=O)CO [Corticosterone] | <0.025 |
| C#C[C@]1(O)CC[C@H]2[C@@H]3CCC4=Cc5oncc5C[C@]4(C)[C@H]3CC[C@@]21C [Danasol] | <0.025 |
| C[C@]12CC[C@H](O)CC1=CC[C@@H]1[C@@H]2CC[C@]2(C)C(=O)CC[C@@H]12 [Dehydroepiandrosterone] | <0.05 |
| C[C@H]1CC(=O)C[C@@H]2CC[C@H]3[C@@H]4CC[C@H](O)[C@@]4(C)CC[C@@H]3[C@]21C [Mesterolone] | <0.05 |
| CC(=O)[C@H]1CC[C@H]2[C@@H]3CCC4=CC(=O)CC[C@]4(C)[C@H]3CC[C@]12C [Progesterone] | <0.025 |
| C[C@]12CC[C@H]3[C@@H](CCC4=CC(=O)CC[C@@]43C)[C@@H]1CC[C@@H]2O [Testosterone] | <0.05 |
